Source: patent US7345070B2, “Peroxisome proliferator activated receptor agonists” (Eli Lilly and Company, priority 2000, dated 2008)

Legend:
HuapoAI transgenic mice = assay: Evaluation of triglyceride and cholesterol level in HuapoAI transgenic mice; assay type: in vivo; details: Mus musculus, 168 h, human apoAI transgenic mice, 30 mg/kg oral gavage daily for 7 days; for change in vivo at 30 mg/kg: FPLC area under the curve, over mice receiving vehicle, read-out: % HDLc Increase; for inhibition in vivo at 30 mg/kg: serum 3 h after dosing, read-out: Reduction in Triglyceride Serum Level
Summary of the method: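 Mice got daily oral gavage doses for 7 days, and blood was drawn by cardiac puncture under isoflurane 3 h after the final dose. Serum triglycerides and total cholesterol were measured colorimetrically against standard curves. VLDL, LDL and HDL cholesterol came from Superose 6 FPLC in PBS-EDTA with in-line detection, as peak areas.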

db/db mice = assay: Evaluation of glucose levels in db/db mice; assay type: in vivo; details: Mus musculus, 168 h, 30 mg/kg oral gavage daily for 7 days, 100% = glucose not different from lean values, read-out: Glucose Normalisation
Method: Five week old male diabetic (db/db) mice [C57BlKs/j-m+/+ Lepr(db), Jackson Laboratory, Bar Harbor, Me.] or lean littermates (db+) were housed 6 per cage (10″×20″×8″ with aspen chip bedding) with food (Purina 5015) and water available at all times. After an acclimation period of 2 weeks, animals were individually identified by ear notches, weighed, and bled via the tail vein for determination of initial glucose levels. Blood was collected (100 μl) from unfasted animals by wrapping each mouse in a towel, cutting the tip of the tail with a scalpel, and milking blood from the tail into a heparinized capillary tube (Fisher) balanced on the edge of the bench. Sample was discharged into a heparinized microtainer with gel separator (VWR) and retained on ice. Plasma was obtained after centrifugation at 4° C. and glucose measured immediately. Remaining plasma was frozen until the completion of the experiment, when glucose and triglycerides were assayed in all samples. Animals were grouped based on initial glucose levels and body weights. Beginning the following morning, mice were dosed daily by oral gavage for 7 days using a 20 gauge, 1½″ curved disposable feeding needle. Treatments were test compounds (30 mg/kg), a positive control agent (30 mg/kg) or vehicle [1% carboxymethylcellulose (w/v)/0.25% Tween80 (w/v); 0.3 ml/mouse]. On day 7, mice were weighed and bled (tail vein) 3 hours after dosing. Twenty-four hours after the 7th dose (i.e., day 8), animals were bled again (tail vein). Samples obtained from conscious animals on days 0, 7 and 8 were assayed for glucose. After the 24 hour bleed, animals were weighed and dosed for the final time. Three hours after dosing on day 8, animals were anesthetized by inhalation of isoflurane and blood obtained via cardiac puncture (0.5-0.7 ml). Whole blood was transferred to serum separator tubes, chilled on ice and permitted to clot. Serum was obtained after centrifugation at 4° C. and frozen until analysis for compound levels. After sacrifice by cervical dislocation, the liver, heart and epididymal fat pads were excised and weighed.
The animals dosed with vehicle had average triglycerides values of 170-230 mg/dl, which were reduced by the positive PPARγ control (70-120 mg/dl with a mean reduction of 50%). Male db/db mice were hyperglycemic (average glucose of 680-730 mg/dl on the 7th day of treatment), while lean animals had average glucose levels between 190-230 mg/dl.
Glucose was measured […] using commercially purchased reagents (Sigma #315-500). According to the manufacturers, the procedures were modified from published work (McGowan, M. W., Artiss, J. D., Strandbergh, D. R. & Zak, B. Clin Chem, 20:470-5 (1974) and Keston, A. Specific colorimetric enzymatic analytical reagents for glucose. Abstract of papers 129th Meeting ACS, 31C (1956).); and depend on the release of a mole of hydrogen peroxide for each mole of analyte, coupled with a color reaction first described by Trinder (Trinder, P. Determination of glucose in blood using glucose oxidase with an alternative oxygen acceptor. Ann Clin Biochem, 6:24 (1969)). The absorbance of the dye produced is linearly related to the analyte in the sample. The assays were further modified in our laboratory for use in a 96 well format. Standards (Sigma #339-11, Sigma #16-11, and Sigma #CC0534 for glucose, triglycerides and total cholesterol, respectively), quality control plasma (Sigma # A2034), and samples (2 or 5 μl/well) were measured in duplicate using 200 μl of reagent. An additional aliquot of sample, pipetted to a third well and diluted in 200 μl water, provided a blank for each specimen. Plates were incubated at room temperature (18, 15, and 10 minutes for glucose, triglycerides and total cholesterol, respectively) on a plate shaker (DPC Micormix 5) and absorbance read at 500 nm (glucose and total cholesterol) or 540 nm (triglycerides) on a plate reader (Wallac Victor 1420). […]

SMILES	change in vivo at 30 mg/kg (HuapoAI transgenic mice)	inhibition in vivo at 30 mg/kg (HuapoAI transgenic mice)	inhibition in vivo at 30 mg/kg (db/db mice)
Cc1oc(C2CCCCC2)nc1CCOc1ccc(CC(C)(Oc2ccc(C(F)(F)F)cc2)C(=O)O)cc1 (stereo not shown) [Example 52, 3-{4-[2-(2-Cyclohexyl-5-methyl-oxazol-4-yl)-ethoxy]-phenyl}-2-methyl-2-(4-trifluoromethyl-phenoxy)-propionic acid]	185%	75.9%	98%
Cc1oc(C2CCCCC2)nc1CCOc1ccc(CC(C)(Oc2ccc(F)c(F)c2)C(=O)O)cc1 (stereo not shown) [Example 58, 3-{4-[2-(2-Cyclohexyl-5-methyl-oxazol-4-yl)-ethoxy]-phenyl}-2-(3,4-difluoro-phenoxy)-2-methyl-propionic acid]	74%	26.5%	81%
Cc1cccc(OC(C)(Cc2ccc(OCCc3nc(-c4cccs4)oc3C)cc2)C(=O)O)c1 (stereo not shown) [Example 61, 2-Methyl-3-{4-[2-(5-methyl-2-thiophen-2-yl-oxazol-4-yl)-ethoxy]-phenyl}-2-m-tolyloxy-propionic acid]	72%	17.6%	79%
Cc1cccc(OC(C)(Cc2ccc(OCCc3nc(C4CCCCC4)oc3C)cc2)C(=O)O)c1 (stereo not shown) [Example 62, 3-{4-[2-(2-Cyclohexyl-5-methyl-oxazol-4-yl)-ethoxy]-phenyl}-2-methyl-2-m-tolyloxy-propionic acid]	72%	2.5%	79%
Cc1oc(-c2cccs2)nc1CCOc1ccc(CC(C)(Oc2ccc(F)cc2)C(=O)O)cc1 (stereo not shown) [Example 64, 2-(4-Fluoro-phenoxy)-2-methyl-3-{4-[2-(5-methyl-2-thiophen-2-yl-oxazol-4-yl)-ethoxy]-phenyl}-propionic acid]	66%	43%	97%
Cc1oc(C2CCCCC2)nc1CCOc1ccc(CC(C)(Oc2ccc(F)cc2)C(=O)O)cc1 (stereo not shown) [Example 65, 3-{4-[2-(2-Cyclohexyl-5-methyl-oxazol-4-yl)-ethoxy]-phenyl}-2-(4-fluoro-phenoxy)-2-methyl-propionic acid]	75%	54%	99%
Cc1oc(C2(C)CCCCC2)nc1CCOc1ccc(C[C@](C)(Oc2ccc(F)cc2)C(=O)O)cc1 [Example 67, (S)-2-(4-Fluoro-phenoxy)-2-methyl-3-(4-{2-[5-methyl-2-(1-methyl-cyclohexyl)-oxazol-4-yl]-ethoxy}-phenyl)-propionic acid]	76%	67.8%	96%
Cc1oc(-c2cccs2)nc1CCOc1ccc(CC(C)(Oc2cccc(C(F)(F)F)c2)C(=O)O)cc1 (stereo not shown) [Example 71, 2-Methyl-3-{4-[2-(5-methyl-2-thiophen-2-yl-oxazol-4-yl)-ethoxy]-phenyl}-2-(3-trifluoromethyl-phenoxy)-propionic acid]	34%	–	97%
COc1cccc(OC(C)(Cc2ccc(OCCc3nc(C4CCCCC4)oc3C)cc2)C(=O)O)c1 (stereo not shown) [Example 76, 3-{4-[2-(2-Cyclohexyl-5-methyl-oxazol-4-yl)-ethoxy]-phenyl}-2-(3-methoxy-phenoxy)-2-methyl-propionic acid]	26%	27.1%	97%
Cc1oc(-c2ccccc2)nc1CCOc1ccc(CC(C)(Oc2ccc3c(c2)OCO3)C(=O)O)cc1 (stereo not shown) [Example 78, 2-(Benzo[1,3]dioxol-5-yloxy)-2-methyl-3-{4-[2-(5-methyl-2-phenyl-oxazol-4-yl)-ethoxy]-phenyl}-propionic acid]	95%	64.8%	86%
Cc1oc(C2CCCCC2)nc1CCOc1ccc(CC(C)(Oc2ccc3c(c2)OCO3)C(=O)O)cc1 (stereo not shown) [Example 80, 2-(Benzo[1,3]dioxol-5-yloxy)-3-{4-[2-(2-cyclohexyl-5-methyl-oxazol-4-yl)-ethoxy]-phenyl}-2-methyl-propionic acid]	123%	36.6%	83%
Cc1oc(CCc2ccccc2)nc1CCOc1ccc(C[C@](C)(Oc2ccccc2)C(=O)O)cc1 [Example 86, (S)-2-Methyl-3-{4-[2-(5-methyl-2-phenethyl-oxazol-4-yl)-ethoxy]-phenyl}-2-phenoxy-propionic acid]	36%	30.1%	92%
Cc1oc(-c2ccccc2)nc1CCCc1ccc(CC(C)(Oc2ccccc2)C(=O)O)s1 (stereo not shown) [Example 91, 2-Methyl-3-{5-[3-(5-methyl-2-phenyl-oxazol-4-yl)-propyl]-thiophen-2-yl}-2-phenoxy-propionic acid]	46%	–	71%
